Data published in patent publication US10023575B2, “Cyclic ether derivatives of pyrazolo[1,5-a]pyrimidine-3-carboxyamide” (Boehringer Ingelheim International GmbH, priority 2015, dated 2018).
Read-outs that look alike come from different tables or passages of the source.

What was measured:
[1] = Metabolic stability in pooled human liver microsomes; type: in vitro ADME; details: 1 mg/mL protein, 1 μM compound, 37° C.; for Half-life t½ human: human liver microsomes; for half-life at 1 µM: human, pooled human liver microsomes, pH 7.6, human liver microsomes, read-out: Half-life t½ human
Description: The metabolic degradation of the test compound was assayed at 37° C. with pooled liver microsomes from various species. The final incubation volume of 100 μl per time point contains TRIS buffer pH 7.6 at room temperature (0.1 M), magnesium chloride (5 mM), microsomal protein (1 mg/mL for human and dog, 0.5 mg/mL for other species) and the test compound at a final concentration of 1 μM. Following a short preincubation period at 37° C., the reactions were initiated by addition of betanicotinamide adenine dinucleotide phosphate, reduced form (NADPH, 1 mM), and terminated by transferring an aliquot into solvent after different time points. […] The half-life was determined by the slope of the semi-logarithmic plot of the concentration-time profile.

[2] = test system: MDCK-MDR1 cell monolayers; assay: Assessment of efflux in MDCK cells transfected with the human MDR1 gene (MDCK assay); type: in vitro ADME, canine; details: for efflux ratio: MDCK-MDR1, Papp (b-a) divided by Papp (a-b); for Papp (a-b) mean: MDCK-MDR1, apical-to-basal, pH 7.4, 37° C.
Description: Assessment of Efflux in Madin-Darby Canine Kidney Cells Transfected with the Human MDR1 Gene (MDCK Assay)
Apparent permeability coefficients (PE) of the compounds across the MDCK-MDR1 cell monolayers are measured (pH 7.4, 37° C.) in apical-to-basal (AB) and basal-to-apical (BA) transport direction. AB permeability (PEAB) represents drug absorption from the blood into the brain and BA permeability (PEBA) drug efflux from the brain back into the blood via both passive permeability as well as active transport mechanisms mediated by efflux and uptake transporters that are expressed on the MDCK-MDR1 cells, predominantly by the overexpressed human MDR1 P-gp. The compounds are assigned to permeability/absorption classes by comparison of the AB permeabilities with the AB permeabilities of reference compounds with known in vitro permeability and oral absorption in the human. Identical or similar permeabilities in both transport directions indicate passive permeation, vectorial permeability points to additional active transport mechanisms. Higher PEBA than PEAB indicates the involvement of active efflux mediated by MDR1 P-gp. Active transport is concentration-dependently saturable.
MDCK-MDR1 cells (1-2×10e5 cells/1 cm2 area) are seeded on filter inserts (Costar transwell polycarbonate or PET filters, 0.4 μm pore size) and cultured (DMEM) for 7 days. Subsequently, the MDR1 expression is boosted by culturing the cells with 5 mM sodium butyrate in full medium for 2 days. Compounds are dissolved in appropriate solvent (like DMSO, 1-20 mM stock solutions). […] The transport solution (TL) is applied to the apical or basolateral donor side for measuring A-B or B-A permeability (3 filter replicates), respectively. The receiver side contains the same buffer as the donor side. Samples are collected at the start and end of experiment from the donor and at various time intervals for up to 2 hours also from the receiver side for concentration measurement by HPLC-MS/MS or scintillation counting. Sampled receiver volumes are replaced with fresh receiver solution. Efflux ratio is calculated dividing the Papp (b-a) values by the Papp (a-b) values.

PDE 2A = PDE 2A (Homo sapiens (Human), UniProt O00408); assay: Phosphodiesterase (PDE) 2A assay with fluorescent substrate (IMAP, fluorescence polarization); type: biochemical; details: labeled cAMP 30 nM, read-out: PDE2 IC50
Sequence of PDE 2A (O00408 whole entry, species assumed): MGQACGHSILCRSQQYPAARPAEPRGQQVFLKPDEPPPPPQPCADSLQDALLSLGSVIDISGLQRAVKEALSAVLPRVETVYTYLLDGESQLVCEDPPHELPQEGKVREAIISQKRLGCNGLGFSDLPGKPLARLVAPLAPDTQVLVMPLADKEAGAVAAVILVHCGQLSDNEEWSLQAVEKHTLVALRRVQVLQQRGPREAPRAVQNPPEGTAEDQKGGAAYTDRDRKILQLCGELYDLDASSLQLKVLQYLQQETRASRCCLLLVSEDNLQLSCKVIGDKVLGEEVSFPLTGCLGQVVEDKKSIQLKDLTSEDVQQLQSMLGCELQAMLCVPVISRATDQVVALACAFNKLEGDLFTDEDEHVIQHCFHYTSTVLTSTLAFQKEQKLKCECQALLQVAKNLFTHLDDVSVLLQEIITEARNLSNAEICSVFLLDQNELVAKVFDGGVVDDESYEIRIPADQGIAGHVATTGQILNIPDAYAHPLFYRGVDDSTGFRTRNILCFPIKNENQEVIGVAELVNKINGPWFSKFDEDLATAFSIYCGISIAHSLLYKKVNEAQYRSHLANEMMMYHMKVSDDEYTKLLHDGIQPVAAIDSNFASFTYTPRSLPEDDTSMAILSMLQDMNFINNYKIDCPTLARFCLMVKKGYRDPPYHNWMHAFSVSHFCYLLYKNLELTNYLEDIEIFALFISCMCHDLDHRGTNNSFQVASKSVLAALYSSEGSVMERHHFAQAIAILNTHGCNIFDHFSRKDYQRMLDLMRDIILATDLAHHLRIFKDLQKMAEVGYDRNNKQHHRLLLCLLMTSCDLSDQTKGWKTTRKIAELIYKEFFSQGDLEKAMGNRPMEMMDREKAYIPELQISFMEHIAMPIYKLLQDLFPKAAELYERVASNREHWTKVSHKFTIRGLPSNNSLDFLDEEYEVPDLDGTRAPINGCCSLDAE
Description: (§1) The PDE reaction cleaves cAMP to AMP. The IMAP system (Molecular Device) using fluorescence polarization (FP) as detection principle was used to measure enzyme activity. A fluorescent labeled cAMP was used as substrate for the reaction, generating a labeled AMP. The fluorescent AMP binds specifically to the large M(III)-based nano-particles which reduces the rotational speed of the substrate and thus increases its polarization.
(§2) The inhibition of PDE 2A or 10 enzyme activity was assessed using IMAP-Phosphodiesterase-cAMP fluorescence labeled substrate (Molecular Devices, Order No. R7506), IMAP TR-FRET screening express (Molecular Devices, Order No. R8160, the TR-FRET component will not be used) and PDE 2A or PDE10 protein expressed upon baculovirus infection in SF9 cells. The cells were incubated after infection for ˜3 days and protein production was confirmed by Western Blot. The cells were collected by centrifugation and the pellet frozen in liquid nitrogen before it was resuspended in PBS containing 1% Triton X-100 and protease inhibitors. After 45 min incubation on ice, the cell debris was removed by centrifugation (13.000 rpm, 30 min).
(§3) All reactions were performed in 384 well plates, Perkin Elmer black optiplates and IMAP reaction buffer with 0.1% Tween20 (kit component)
(§4) Compounds were serial diluted in DMSO. With an intermediate dilution step with reaction buffer DMSO concentration was reduced to achieve 1% DMSO in the assay reaction. Setup of the assay started with 10 μl enzyme (˜10 ng/well, depending on prep. batch), 5 μl compound, reaction was started by addition of 5 μl labeled cAMP (30 nM, final concentration), immediately mixed for 15 seconds on a Eppendorf mixmate (2000 rpm) followed by an incubation at room temperature for 90 minutes in the dark. Reaction is stopped by adding of 60 μl binding buffer for FP/cAMP (kit component).
(§5) Each assay plate contained wells with vehicle controls (1% DMSO) for the measurement of non-inhibited reaction (=100% control) and wells without enzyme as 0% controls.

PDE10 = PDE10 (Homo sapiens (Human), UniProt Q9Y233); assay: Phosphodiesterase (PDE) 10 assay with fluorescent substrate (IMAP, fluorescence polarization); type: biochemical; details: labeled cAMP 30 nM
Sequence of PDE10 (Q9Y233 whole entry): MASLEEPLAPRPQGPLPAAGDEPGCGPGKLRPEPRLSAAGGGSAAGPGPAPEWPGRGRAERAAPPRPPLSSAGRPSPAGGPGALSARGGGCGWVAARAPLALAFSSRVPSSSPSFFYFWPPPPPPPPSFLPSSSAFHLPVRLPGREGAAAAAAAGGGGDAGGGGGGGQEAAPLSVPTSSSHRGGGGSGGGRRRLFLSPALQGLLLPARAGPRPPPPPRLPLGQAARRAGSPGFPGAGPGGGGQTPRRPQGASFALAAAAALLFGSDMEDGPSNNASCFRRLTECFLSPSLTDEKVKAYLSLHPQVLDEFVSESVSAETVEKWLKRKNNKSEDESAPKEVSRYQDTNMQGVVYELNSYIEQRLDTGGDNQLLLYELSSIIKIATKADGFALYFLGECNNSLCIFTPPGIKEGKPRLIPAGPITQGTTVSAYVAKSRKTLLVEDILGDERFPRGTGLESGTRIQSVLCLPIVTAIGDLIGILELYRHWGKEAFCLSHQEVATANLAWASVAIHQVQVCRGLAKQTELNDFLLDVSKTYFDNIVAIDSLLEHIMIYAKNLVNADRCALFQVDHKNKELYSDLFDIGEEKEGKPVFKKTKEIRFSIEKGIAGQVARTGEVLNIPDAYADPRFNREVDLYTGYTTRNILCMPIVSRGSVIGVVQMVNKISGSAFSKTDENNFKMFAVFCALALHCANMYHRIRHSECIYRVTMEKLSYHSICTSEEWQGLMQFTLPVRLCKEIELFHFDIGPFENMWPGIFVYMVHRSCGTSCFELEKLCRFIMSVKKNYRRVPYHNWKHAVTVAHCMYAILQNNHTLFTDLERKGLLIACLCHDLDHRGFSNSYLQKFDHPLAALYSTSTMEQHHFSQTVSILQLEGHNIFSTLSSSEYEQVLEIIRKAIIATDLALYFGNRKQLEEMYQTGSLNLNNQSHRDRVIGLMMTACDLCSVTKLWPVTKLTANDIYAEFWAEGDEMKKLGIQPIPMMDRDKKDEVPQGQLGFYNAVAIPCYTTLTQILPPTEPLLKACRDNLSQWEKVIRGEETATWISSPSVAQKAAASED
Description: as §1, §2, §3, §4, §5

[3] = Plasma protein binding with equilibrium dialysis, human plasma; type: in vitro ADME; details: equilibrium dialysis 2 hours 37° C.; for PPB HUM % BINDING: human plasma, 1.0 μM; for fraction unbound at 2 h, 1 µM: human, pooled human plasma (with NaEDTA), pH 7.4, human plasma, read-out: PPB HUM % BINDING (converted)
Text: (§6) Plasma Protein Binding (Determination of Human and Rat Plasma Protein Binding with Equilibrium Dialysis)
(§7) This equilibrium dialysis (ED) technique is used to determine the approximate in vitro fractional binding of test compounds to human and rat plasma proteins.
(§8) Dianorm Teflon dialysis cells (micro 0.2) are used. Each cell consists of a donor and an acceptor chamber, separated by an ultrathin semipermeable membrane with a 5 kDa molecular weight cutoff.
(§9) Stock solutions for each test compound are prepared in DMSO at 1 mM and diluted to a final concentration of 1.0 μM. The subsequent dialysis solutions are prepared in pooled human and rat plasma (with NaEDTA)
(§10) Aliquots of 200 μL dialysis buffer (100 mM potassium phosphate, pH 7.4) are dispensed into the buffer chamber. Aliquots of 200 μL test compound dialysis solution are dispensed into the plasma chambers. Incubation is carried out for 2 hours under rotation at 37° C.
(§11) At the end of the dialysis period, the dialysate is transferred into reaction tubes. The tubes for the buffer fraction contain 0.2 ml Acetonitril/water (80/20). Aliquots of 25 μl of the plasma dialysate are transferred into deep well plates and mixed with 25 μl Acetonitril/water (80/20), 25 μl buffer, 25 μl calibration solution and 25 μl Internal Standard solution. Protein precipitation is done by adding 200 μl Acetonitrile. Aliquots of 50 μl of the buffer dialysate are transferred into deep well plates and mixed with 25 μl blank plasma, 25 μl Internal Standard solution and 200 μl Acetonitril. Samples are measured on HPLC-MS/MS-Systems and evaluated with Analyst-Software.
(§12) Percent bound is calculated with the formula: % bound=(plasma concentration−buffer concentration/plasma concentration)×100 and % free is calculated as difference.

[4] = Plasma protein binding with equilibrium dialysis, rat plasma; type: in vitro ADME; details: equilibrium dialysis 2 hours 37° C.; for fraction unbound at 2 h, 1 µM: rat, pooled rat plasma (with NaEDTA), pH 7.4, rat plasma, read-out: PPB RAT % BINDING (converted)
Text: as §6, §7, §8, §9, §10, §11, §12

[5] = In-vivo effect: animal experiments and sample analysis (plasma, brain, CSF concentration); details: rat, 0.5 h between administration and CSF sampling; for concentration at 0.5 h: doses of 10.0 or 5 μmol/kg
Description: In-Vivo Effect: Animal Experiments and Sample Analysis (CSF):
CSF samples were carefully collected by puncture of the cisterna magna under anesthaesia. Immediately after CSF sampling, blood was taken by heart puncture and brains were dissected out. Blood was collected in EDTA-coated microvettes and plasma was prepared by centrifugation. Concentration of the test compounds in plasma, CSF or brain homogenate was determined using HPLC-MS-MS.

[6] = brain homogenate, read-out: conc brain
[7] = brain, read-out: c(brain)/c(plasma)

| SMILES | Half-life t½ human [1] | efflux ratio [2] | Papp (a-b) mean [2] | IC50 (PDE 2A) | IC50 (PDE10) | PPB HUM % BINDING [3] | PPB RAT % BINDING ([4]; rat plasma, 1.0 μM) | fraction unbound at 2 h, 1 µM [4] | half-life at 1 µM [1] | concentration at 0.5 h [5, 6] | Kp at 0.5 h [5, 7] | concentration at 0.5 h ([5]; plasma, read-out: conc plasma) | concentration at 0.5 h ([5]; read-out: conc CSF) | Kp at 0.5 h ([5]; read-out: c(CSF)/c(plasma)) | fraction unbound at 2 h, 1 µM [3] |
| --- | --- | --- | --- | --- | --- | --- | --- | --- | --- | --- | --- | --- | --- | --- | --- |
| O=C(NC1(c2ccc(C(F)(F)F)cc2F)COCC1O)c1cnn2cc(C3CC3)cnc12 (single isomer, unassigned) [Example 70] | 1.05 h | 2.1 | 20 10-6 cm/s | 1.25 µM | > 10 µM | 79.4% | – | – | – | – | – | – | – | – | – |
| O=C(NC1(c2ccc(C(F)(F)F)cc2F)COCC1O)c1cnn2cc(C3CC3)cnc12 (single isomer, unassigned) [Example 71] | >2.17 h | 1.9 | 23 10-6 cm/s | 0.013 µM | > 10 µM | 81.1% | – | – | – | – | – | – | – | – | – |
| Cc1cnc2c(C(=O)NC3(c4ccc(C(F)(F)F)cc4F)CCOCC3O)cnn2c1 (single isomer, unassigned) [Example 81b] | >2.17 h | – | 64 10-6 cm/s | – | > 10 µM | 65.3% | 66.2% | – | – | – | – | – | – | – | – |
| O=C(NC1(c2ccc(C(F)(F)F)cc2F)CCOCC1O)c1cnn2cc(C3CC3)cnc12 (single isomer, unassigned) [Example 82a] | – | – | – | 0.0012 µM | > 10 µM | – | – | 0.135 | > 2.17 h | 1.18 µM | 0.36 | 3.32 µM | 0.157 µM | 0.05 | 0.213 |
| Cc1cnc2c(C(=O)NC3(c4ccc(C(F)(F)F)cc4F)CCOCC3(C)O)cnn2c1 (single isomer, unassigned) [Example 84a] | – | – | 31 10-6 cm/s | – | – | – | – | – | – | – | – | – | – | – | – |
| Cc1cnc2c(C(=O)NC3(c4ccc(C(F)(F)F)cc4F)CCOCC3(C)O)cnn2c1 (single isomer, unassigned) [Example 84b] | – | – | 23 10-6 cm/s | – | – | – | – | – | – | – | – | – | – | – | – |
| Cc1nn2cc(C3CC3)cnc2c1C(=O)NC1(c2ccc(C(F)(F)F)cn2)CCOCC1 [Example 21] | – | – | – | 0.074 µM | > 10 µM | – | – | 0.128 | > 2.17 h | 1.32 µM | 1.17 | 1.21 µM | 0.106 µM | 0.09 | 0.162 |
| Cc1nn2cc(C3CC3)cnc2c1C(=O)NC1(c2ccc(C(F)(F)F)nc2)CCOCC1 [Example 25] | – | – | – | 0.088 µM | 9.07 µM | – | – | 0.169 | > 2.17 h | 0.957 µM | 0.92 | 1.04 µM | 0.111 µM | 0.12 | 0.246 |
